Ends that are not written are not given here.
Key:
[1] = test system: Mannheimia haemolytica ATCC 33393; test: MIC, broth dilution; type: cell-based; details: Table 11; highest concentration 25 μg/mL
Procedure, shortened: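 Peptides (95% purity) in 2-fold dilution series were mixed with M. haemolytica diluted to OD 6×10^−4 in cation-adjusted Mueller Hinton broth and incubated standing overnight at 37 °C. MIC was the lowest concentration with no visible growth.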

C. albicans Y537 = test: MIC, YPD broth; type: cell-based, Candida albicans; details: Table 8
C. albicans MYA-2876 = test: MIC, YPD broth; type: cell-based, Candida albicans; details: Table 8
Procedure, shortened: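 Minimum inhibitory concentrations against Candida albicans were determined in YPD broth (10 g/L yeast extract, 20 g/L peptone, 20 g/L dextrose) using peptides of 95% purity. A 180 μl volume of diluted yeast was combined with 20 μl of peptide in a 2-fold dilution series in 96-well plates, with sterile water as control, then incubated standing overnight at 37° C.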

[2] = test system: Candida haemulonii AR 393; test: MIC, YPD broth, CDC and FDA AR Candida isolate panel; type: cell-based; details: Table 9 below the line: only 200 or 100 μg/mL tested; values reported as 100 are ≤100 μg/mL
Procedure, shortened: (§1)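 Peptide purity was 95%. Doubling dilutions were tested against yeast set at an optical density of […], with overnight standing incubation at 37° C and a sterile-water control.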

[3] = test system: Candida duobushaemulonii AR 391; test: as above; type: cell-based; details: Table 9 below the line: only 200 or 100 μg/mL tested; values reported as 100 are ≤100 μg/mL
Procedure, shortened: as §1

Kodamae ohmeri AR 396 = test: as above; type: cell-based; details: Table 9 below the line: only 200 or 100 μg/mL tested; values reported as 100 are ≤100 μg/mL
Procedure, shortened: as §1

[4] = test system: Saccharomyces cerevisiae AR 400; test: as above; type: cell-based; details: Table 9 below the line: only 200 or 100 μg/mL tested; values reported as 100 are ≤100 μg/mL
Procedure, shortened: as §1

[5] = test system: Candida lusitaniae AR 398; test: as above; type: cell-based; details: Table 9 below the line: only 200 or 100 μg/mL tested; values reported as 100 are ≤100 μg/mL
Procedure, shortened: as §1

[6] = test system: Candida haemulonii AR 395; test: as above; type: cell-based; details: Table 9 below the line: only 200 or 100 μg/mL tested; values reported as 100 are ≤100 μg/mL
Procedure, shortened: as §1

[7] = test system: Candida duobushaemulonii AR 392; test: as above; type: cell-based; details: Table 9 below the line: only 200 or 100 μg/mL tested; values reported as 100 are ≤100 μg/mL
Procedure, shortened: as §1

[8] = test system: Saccharomyces cerevisiae AR 399; test: as above; type: cell-based; details: Table 9 below the line: only 200 or 100 μg/mL tested; values reported as 100 are ≤100 μg/mL
Procedure, shortened: as §1

[9] = test system: Candida duobushaemulonii AR 394; test: as above; type: cell-based; details: Table 9 below the line: only 200 or 100 μg/mL tested; values reported as 100 are ≤100 μg/mL
Procedure, shortened: as §1

Candida krusei AR 397 = test: as above; type: cell-based; details: Table 9 below the line: only 200 or 100 μg/mL tested; values reported as 100 are ≤100 μg/mL
Procedure, shortened: as §1

[10] = test system: S. aureus ATCC BAA-2094 (MRSA SCCmec type V); test: MIC, broth dilution; type: cell-based, Staphylococcus aureus; details: Table 5; STIP3 variants, highest concentration 100 μg/mL
Procedure, shortened: (§2)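 MIC defined as the lowest peptide level giving no growth after overnight standing incubation at 37° C. Bacteria at OD 6×10^−4 in cation-adjusted MH broth met 2-fold serial peptide dilutions; peptide purity 95%.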

[11] = test system: S. aureus ATCC BAA-41 (MRSA SCCmec type II); test: MIC, broth dilution; type: cell-based, Staphylococcus aureus; details: Table 5; STIP3 variants, highest concentration 100 μg/mL
Procedure, shortened: as §2

S. aureus ATCC 29213 = test: MIC, broth dilution; type: cell-based, Staphylococcus aureus; details: Table 5; STIP3 variants, highest concentration 100 μg/mL
Procedure, shortened: as §2

[12] = test system: S. aureus ATCC BAA-2313 (MRSA SCCmec type XI); test: MIC, broth dilution; type: cell-based, Staphylococcus aureus; details: Table 5; STIP3 variants, highest concentration 100 μg/mL
Procedure, shortened: as §2

[13] = test system: S. aureus ATCC 33592 (MRSA SCCmec type III); test: MIC, broth dilution; type: cell-based, Staphylococcus aureus; details: Table 5; STIP3 variants, highest concentration 100 μg/mL
Procedure, shortened: as §2

[14] = test system: S. aureus ATCC BAA-42 (MRSA SCCmec type VI); test: MIC, broth dilution; type: cell-based, Staphylococcus aureus; details: Table 5; STIP3 variants, highest concentration 100 μg/mL
Procedure, shortened: as §2

[15] = test system: S. aureus ATCC BAA-44 (MRSA SCCmec type I); test: MIC, broth dilution; type: cell-based, Staphylococcus aureus; details: Table 5; STIP3 variants, highest concentration 100 μg/mL
Procedure, shortened: as §2

[16] = test system: S. aureus ATCC BAA-1683 (MRSA SCCmec type IV); test: MIC, broth dilution; type: cell-based, Staphylococcus aureus; details: Table 5; STIP3 variants, highest concentration 100 μg/mL
Procedure, shortened: as §2

Sequence: TVGGLVKWILKTVKKFA [STIP3-3, TVGGLVKWILKTVKKFA]
- MIC (μg/mL) M. haemolytica [1]: 12.5 µg/mL
- MIC C. albicans Y537 (C. albicans Y537): 50 mg/L
- MIC C. albicans MYA-2876 (C. albicans MYA-2876): 25 mg/L
- MIC (μg/mL) Candida haemulonii AR 393 [2]: > (values below the line were determined using two concentrations of peptide 200 or 100 μg/mL)
- MIC (μg/mL) Candida duobushaemulonii AR 391 [3]: ≤ 100 µg/mL
- MIC (μg/mL) Kodamae ohmeri AR 396 (Kodamae ohmeri AR 396): ≤ 100 µg/mL
- MIC (μg/mL) Saccharomyces cerevisiae AR 400 [4]: ≤ 100 µg/mL
- MIC (μg/mL) Candida lusitaniae AR 398 [5]: ≤ 100 µg/mL
- MIC (μg/mL) Candida haemulonii AR 395 [6]: > (values below the line were determined using two concentrations of peptide 200 or 100 μg/mL)
- MIC (μg/mL) Candida duobushaemulonii AR 392 [7]: > (values below the line were determined using two concentrations of peptide 200 or 100 μg/mL)
- MIC (μg/mL) Saccharomyces cerevisiae AR 399 [8]: ≤ 100 µg/mL
- MIC (μg/mL) Candida duobushaemulonii AR 394 [9]: > (values below the line were determined using two concentrations of peptide 200 or 100 μg/mL)
- MIC (μg/mL) Candida krusei AR 397 (Candida krusei AR 397): ≤ 100 µg/mL
- MIC S. aureus ATCC BAA 2094 (V) [10]: 25 mg/L
- MIC S. aureus ATCC BAA 41 (II) [11]: 25 mg/L
- MIC S. aureus ATCC 29213 (S. aureus ATCC 29213): 25 mg/L
- MIC S. aureus ATCC BAA 2313 (XI) [12]: 50 mg/L
- MIC S. aureus ATCC 33592 (III) [13]: 25 mg/L
- MIC S. aureus ATCC BAA 42 (VI) [14]: 50 mg/L
- MIC S. aureus ATCC BAA 44 (I) [15]: 25 mg/L
- MIC S. aureus ATCC BAA 1683 (IV) [16]: 50 mg/L

Sequence: TVKKLVKWILKTVKKFA [STIP3-18, TVKKLVKWILKTVKKFA]
- MIC (μg/mL) M. haemolytica [1]: 6.25 µg/mL
- MIC C. albicans Y537 (C. albicans Y537): > (> symbol indicates that no inhibition was observed at the highest concentration of peptide tested: 100 μg/mL)
- MIC C. albicans MYA-2876 (C. albicans MYA-2876): 50 mg/L
- MIC (μg/mL) Candida haemulonii AR 393 [2]: > (values below the line were determined using two concentrations of peptide 200 or 100 μg/mL)
- MIC (μg/mL) Candida duobushaemulonii AR 391 [3]: ≤ 100 µg/mL
- MIC (μg/mL) Kodamae ohmeri AR 396 (Kodamae ohmeri AR 396): > (values below the line were determined using two concentrations of peptide 200 or 100 μg/mL)
- MIC (μg/mL) Saccharomyces cerevisiae AR 400 [4]: ≤ 100 µg/mL
- MIC (μg/mL) Candida lusitaniae AR 398 [5]: ≤ 100 µg/mL
- MIC (μg/mL) Candida haemulonii AR 395 [6]: > (values below the line were determined using two concentrations of peptide 200 or 100 μg/mL)
- MIC (μg/mL) Candida duobushaemulonii AR 392 [7]: ≤ 100 µg/mL
- MIC (μg/mL) Saccharomyces cerevisiae AR 399 [8]: ≤ 100 µg/mL
- MIC (μg/mL) Candida duobushaemulonii AR 394 [9]: ≤ 100 µg/mL
- MIC (μg/mL) Candida krusei AR 397 (Candida krusei AR 397): ≤ 100 µg/mL
- MIC S. aureus ATCC BAA 2094 (V) [10]: 100 mg/L
- MIC S. aureus ATCC BAA 41 (II) [11]: 100 mg/L
- MIC S. aureus ATCC 29213 (S. aureus ATCC 29213): 100 mg/L
- MIC S. aureus ATCC BAA 2313 (XI) [12]: > (no inhibition was observed at the highest concentration of peptide tested: 100 μg/mL for the STIP3 variants)
- MIC S. aureus ATCC 33592 (III) [13]: 100 mg/L
- MIC S. aureus ATCC BAA 42 (VI) [14]: > (no inhibition was observed at the highest concentration of peptide tested: 100 μg/mL for the STIP3 variants)
- MIC S. aureus ATCC BAA 44 (I) [15]: 100 mg/L
- MIC S. aureus ATCC BAA 1683 (IV) [16]: > (no inhibition was observed at the highest concentration of peptide tested: 100 μg/mL for the STIP3 variants)

Sequence: TVRALVKWILRTVAKFA [STIP3-20, TVRALVKWILRTVAKFA]
- MIC (μg/mL) M. haemolytica [1]: 25 µg/mL
- MIC C. albicans Y537 (C. albicans Y537): > (> symbol indicates that no inhibition was observed at the highest concentration of peptide tested: 100 μg/mL)
- MIC C. albicans MYA-2876 (C. albicans MYA-2876): > (> symbol indicates that no inhibition was observed at the highest concentration of peptide tested: 100 μg/mL)
- MIC (μg/mL) Candida haemulonii AR 393 [2]: > (values below the line were determined using two concentrations of peptide 200 or 100 μg/mL)
- MIC (μg/mL) Candida duobushaemulonii AR 391 [3]: > (values below the line were determined using two concentrations of peptide 200 or 100 μg/mL)
- MIC (μg/mL) Kodamae ohmeri AR 396 (Kodamae ohmeri AR 396): > (values below the line were determined using two concentrations of peptide 200 or 100 μg/mL)
- MIC (μg/mL) Saccharomyces cerevisiae AR 400 [4]: 200 µg/mL
- MIC (μg/mL) Candida lusitaniae AR 398 [5]: > (values below the line were determined using two concentrations of peptide 200 or 100 μg/mL)
- MIC (μg/mL) Candida haemulonii AR 395 [6]: > (values below the line were determined using two concentrations of peptide 200 or 100 μg/mL)
- MIC (μg/mL) Candida duobushaemulonii AR 392 [7]: > (values below the line were determined using two concentrations of peptide 200 or 100 μg/mL)
- MIC (μg/mL) Saccharomyces cerevisiae AR 399 [8]: > (values below the line were determined using two concentrations of peptide 200 or 100 μg/mL)
- MIC (μg/mL) Candida duobushaemulonii AR 394 [9]: > (values below the line were determined using two concentrations of peptide 200 or 100 μg/mL)
- MIC (μg/mL) Candida krusei AR 397 (Candida krusei AR 397): > (values below the line were determined using two concentrations of peptide 200 or 100 μg/mL)
- MIC S. aureus ATCC BAA 2094 (V) [10]: 25 mg/L
- MIC S. aureus ATCC BAA 41 (II) [11]: 12.5 mg/L
- MIC S. aureus ATCC 29213 (S. aureus ATCC 29213): 25 mg/L
- MIC S. aureus ATCC BAA 2313 (XI) [12]: 50 mg/L
- MIC S. aureus ATCC 33592 (III) [13]: 25 mg/L
- MIC S. aureus ATCC BAA 42 (VI) [14]: 25 mg/L
- MIC S. aureus ATCC BAA 44 (I) [15]: 25 mg/L
- MIC S. aureus ATCC BAA 1683 (IV) [16]: 25 mg/L

Source: patent US12370235B2, “Synthetic, non-natural antimicrobial peptides inspired by Staphylococcus auricularis delta toxin” (University of Saskatchewan, priority 2021, dated 2025)
